In series [1] the target is T1, BmMDH2 (Bacillus methanolicus, UniProt I3E949). The experiment in a line: Inhibition kinetics of ADPR on formaldehyde reduction (NADH fluorescence). The class given is biochemical, Bacillus methanolicus MGA3. Conditions: read-out: KM of BmMDH2, without ADPR, 0 to 150 μM NADH. The procedure: Data are shown as means ± SDs (n = 3). Apparent KM values for NAD^+ were determined in the presence of 10 nM ACT (Fig. S6). […] Data are presented as means ± SDs (n = 3). […] The row labels are given as the substance labels. / Panel D: no substance label is printed with the KD and thermodynamic values.

For series [2], the target named is T1, BmMDH2. In words: Isothermal titration calorimetry (ITC) of ADPR binding. On the set-up: species or system Bacillus methanolicus MGA3. The note with it: metal-free BmMDH2.
In series [3] the test system is isopropanol dehydrogenase (IPADHM4). The class given is biochemical, Brucella suis.
For another series, the target named is T2, CbFDH (Candida boidinii, UniProt O13437).
T2 construct: made in house; cell-free extract
T2 sequence (O13437 1-364): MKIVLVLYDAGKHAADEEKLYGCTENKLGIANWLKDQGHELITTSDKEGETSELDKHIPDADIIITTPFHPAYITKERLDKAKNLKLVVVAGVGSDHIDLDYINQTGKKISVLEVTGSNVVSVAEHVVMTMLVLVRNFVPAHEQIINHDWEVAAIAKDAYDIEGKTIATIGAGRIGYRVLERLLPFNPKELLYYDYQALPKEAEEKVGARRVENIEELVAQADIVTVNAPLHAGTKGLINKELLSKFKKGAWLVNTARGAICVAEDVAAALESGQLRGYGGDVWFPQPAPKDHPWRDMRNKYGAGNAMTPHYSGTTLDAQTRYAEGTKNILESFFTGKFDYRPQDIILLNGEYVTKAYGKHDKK
In words: Inhibition effect of ADPR on type II alcohol dehydrogenases. The class given is biochemical. The note with it: 0.5 mM ADPR, 0.5 mM NAD+.

The target in series [4] is T3, ADH from Saccharomyces cerevisiae (ScADH) (Saccharomyces cerevisiae, UniProt P00330).
T3 construct: purchased TCI A0200
T3 sequence (P00330 1-348): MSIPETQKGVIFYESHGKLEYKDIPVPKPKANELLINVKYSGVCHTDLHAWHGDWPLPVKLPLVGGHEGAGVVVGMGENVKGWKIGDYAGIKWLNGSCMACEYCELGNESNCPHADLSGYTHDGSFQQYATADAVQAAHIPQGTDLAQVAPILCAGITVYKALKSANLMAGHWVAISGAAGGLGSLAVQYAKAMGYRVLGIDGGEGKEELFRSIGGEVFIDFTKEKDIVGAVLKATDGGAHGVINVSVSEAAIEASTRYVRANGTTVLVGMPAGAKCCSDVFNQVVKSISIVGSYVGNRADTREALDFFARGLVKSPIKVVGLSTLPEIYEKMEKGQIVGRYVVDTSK
The experiment in a line: Inhibition effect of ADPR on type I alcohol dehydrogenase. The series is classed as biochemical. The note with it: 0.5 mM ADPR, 0.5 mM NAD+.

Series [5] addresses T1, BmMDH2. The experiment in a line: Kinetic assay of MDHs, ethanol dehydrogenation, NAD+ varied. The series is classed as biochemical, Bacillus methanolicus MGA3. The note with it: 1.0 μM ADPR.
In series [6] the target is T1, BmMDH2. In words: Effects of NAM, AMP and ADPR (0.3 mM each) on BmMDH2 activity. The class given is biochemical, Bacillus methanolicus MGA3. The note with it: 3 mM NAD+, 40 mM ethanol.
Series [7] addresses T4, glucose dehydrogenase (BmGDH) (Priestia megaterium, UniProt P40288).
T4 construct: made in house; cell-free extract
The experiment in a line: Inhibition effect of ADPR on type II alcohol dehydrogenases. The class given is biochemical, Bacillus megaterium IWG3. Conditions: 0.5 mM ADPR, 0.5 mM NAD+.

The next series relates to BaAlaDH. The series is described as above. The series is classed as biochemical, Bacillaceae. The note with it: 0.5 mM ADPR, 0.5 mM NAD+.
In another series the target is ACT (Bacillus methanolicus, UniProt Q8KP10, K162Q/L124I/V88I). Conditions: read-out: KM of ACT for ADPR; Tris-HCl pH 8.0, 5 mM MgCl2, 25 °C. The procedure:
The reaction was terminated by adding 10 μl of 3 M H2SO4 after incubation at 25 ° C for 5 min, followed by analysis using HPLC. The kcat and KM values were determined by fitting the initial velocity versus substrate concentration data to the Michaelis-Menten equation using GraphPad Prism.
Reactions were terminated by adding 10 μL of 3 M H2SO4 after incubation at 25 °C for 5 minutes. Data are means ± SDs of three measurements.

Substrate in series [8]: NC(=O)c1ccc[n+]([C@@H]2O[C@H](COP(=O)(O)OP(=O)(O)OC[C@H]3O[C@@H](n4cnc5c(N)ncnc54)[C@H](O)[C@@H]3O)[C@@H](O)[C@H]2O)c1
The experiment in a line: Kinetic assay of MDHs, ethanol dehydrogenation, NAD+ varied. The series is classed as biochemical, Bacillus methanolicus MGA3. The note with it: other: in the presence of 10 nM ACT, 40 mM ethanol, pH 8.0, 25.0 °C.

Substrate in series [9]: NC(=O)c1ccc[n+]([C@@H]2O[C@H](COP(=O)(O)OP(=O)(O)OC[C@H]3O[C@@H](n4cnc5c(N)ncnc54)[C@H](O)[C@@H]3O)[C@@H](O)[C@H]2O)c1
Described as above. The series is classed as biochemical, Bacillus methanolicus MGA3. The note with it: other: in the presence of 10 nM ACT, 40 mM ethanol, pH 8.0, 25.0 °C. The procedure:
NAD^+ and NADH used for the kinetic assays were pretreated with ACT as described above. The reaction mixtures for the ethanol dehydrogenation contained 40 mM ethanol, adequate MDHs, and various concentrations of NAD^+ (ranging from 0 to 48 mM). Enzymatic catalytic rates were determined by monitoring the increase in NADH absorbance at 340 nm. To determine the kinetics of BmMDH2 for the reverse direction (formaldehyde reduction), the reaction mixtures contained 1 mM DTT, 100 nM BmMDH2, 20 mM formaldehyde, 0.5 mM MnCl2, and 0 to 150 μM of NADH. The catalytic rates of formaldehyde reduction were measured by monitoring the decrease of NADH fluorescence, using excitation and emission wavelengths of 340 nm and 535 nm, respectively.
The kinetic assays were conducted in 200 μL Tris-HCl buffer (100 mM, pH 8.0) at 25 °C. The reaction mixture contained 40 mM ethanol, 0.5 mM MnCl2, 10 nM ACT, 5 mM MgCl2, adequate MDHs (BmMDH1: 500 nM; BmMDH2: 100 nM; BmMDH2S101G: 100 nM; CnMDH2 CT4: 100 nM), and 0 to 48 mM of NAD^+. […] Data are means ± SDs of three measurements.
This is another data set of the same source.

The record followed here is paper PMC12926040, “ADP-ribose is a competitive inhibitor of methanol dehydrogenases from Bacillus methanolicus” (The Journal of Biological Chemistry, 2025).

T4 sequence (P40288 whole entry): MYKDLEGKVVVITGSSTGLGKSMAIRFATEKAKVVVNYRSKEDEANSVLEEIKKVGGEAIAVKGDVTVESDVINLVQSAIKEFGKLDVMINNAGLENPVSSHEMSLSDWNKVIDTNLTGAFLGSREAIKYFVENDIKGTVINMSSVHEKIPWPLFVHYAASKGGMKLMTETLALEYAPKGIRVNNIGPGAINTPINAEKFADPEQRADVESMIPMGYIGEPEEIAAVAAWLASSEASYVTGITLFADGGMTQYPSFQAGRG

Turning to `NC(=O)C1=CN([C@@H]2O[C@H](COP(=O)(O)OP(=O)(O)OC[C@H]3O[C@@H](n4cnc5c(N)ncnc54)[C@H](O)[C@@H]3O)[C@@H](O)[C@H]2O)C=CC1` [NADH], the Km (as a rule, the substrate concentration at which the rate is half of its maximum) at BmMDH2 [1] worked out at 6.7 ± 1.7 µM.

Regarding adenosine diphosphate ribose [ADPR], the “binding to EDTA-treated BmMDH2” value on BmMDH2 [2] is on record as “no binding”. Moreover, the “inhibition by ADPR” value (in series [3]; on CbFDH; in series [4]; in series [7]; with BaAlaDH) was “None of these enzymes showed significant inhibition” in each case. Moreover, the “effect on kinetics of ethanol dehydrogenation” value on BmMDH2 [5] is “decrease in kcat, while KM remained unchanged”. Further, the “inhibition of BmMDH2 activity” value against BmMDH2 [6] was 72%. Besides, at ACT, the Km stood at 15.9 µM.

B1: BmMDH2 (Bacillus methanolicus MGA3) (protein)
chain: MTNTQSAFFMPSVNLFGAGSVNEVGTRLADLGVKKALLVTDAGLHGLGLSEKISSIIRAAGVEVSIFPKAEPNPTDKNVAEGLEAYNAENCDSIVTLGGGSSHDAGKAIALVAANGGKIHDYEGVDVSKEPMVPLIAINTTAGTGSELTKFTIITDTERKVKMAIVDKHVTPTLSINDPELMVGMPPSLTAATGLDALTHAIEAYVSTGATPITDALAIQAIKIISKYLPRAVANGKDIEAREQMAFAQSLAGMAFNNAGLGYVHAIAHQLGGFYNFPHGVCNAVLLPYVCRFNLISKVERYAEIAAFLGENVDGLSTYDAAEKAIKAIERMAKDLNIPKGFKELGAKEEDIETLAKNAMKDACALTNPRKPKLEEVIQIIKNAM
As to B1, the Km in [8] was 720 ± 60 µM.

B2: BmMDH1 (Bacillus methanolicus MGA3) (protein)
chain: MTTNFFIPPASVIGRGAVKEVGTRLKQIGAKKALIVTDAFLHSTGLSEEVAKNIREAGVDVAIFPKAQPDPADTQVHEGVDVFKQENCDSLVSIGGGSSHDTAKAIGLVAANGGRINDYQGVNSVEKPVVPVVAITTTAGTGSETTSLAVITDSARKVKMPVIDEKITPTVAIVDPELMVKKPAGLTIATGMDALSHAIEAYVAKGATPVTDAFAIQAMKLINEYLPKAVANGEDIEAREKMAYAQYMAGVAFNNGGLGLVHSISHQVGGVYKLQHGICNSVNMPHVCAFNLIAKTERFAHIAELLGENVAGLSTAAAAERAIVALERINKSFGIPSGYAEMGVKEEDIELLAKNAYEDVCTQSNPRVPTVQDIAQIIKNAM
For the molecule B2, in [9], the Km is 2100 ± 1000 µM.
